Measurements: patent US6124269A, “2-Halo-6-O-substituted ketolide derivatives” (priority 1998, dated 2000)
Values after ≈ are worked out from the molar mass of the structure shown.

Assays:
Type in all cases: cell-based
Escherichia coli DC-2 = test: In vitro agar dilution MIC, organism code SS; conditions: Table 1B, unit assumed
Protocol: (§1) Representative compounds of the present invention were assayed in vitro for antibacterial activity as follows: Twelve petri dishes containing successive aqueous dilutions of the test compound mixed with 10 mL of sterilized Brain Heart Infusion (BHI) agar (Difco 0418-01-5) were prepared. Each plate was inoculated with 1:100 (or 1:10 for slow-growing strains, such as Micrococcus and Streptococcus) dilutions of up to 32 different microorganisms, using a Steers replicator block. The inoculated plates were incubated at 35-37° C. for 20 to 24 hours. In addition, a control plate, using BHI agar containing no test compound, was prepared and incubated at the beginning and end of each test.
(§2) An additional plate containing a compound having known susceptibility patterns for the organisms being tested and belonging to the same antibiotic class as the test compound was also prepared and incubated as a further control, as well as to provide test-to-test comparability.
(§3) After incubation, each plate was visually inspected. The minimum inhibitory concentration (MIC) was defined as the lowest concentration of drug yielding no growth, a slight haze, or sparsely isolated colonies on the inoculum spot as compared to the growth control.

[1] = system: Streptococcus pneumoniae 5979; test: In vitro agar dilution MIC, organism code ZZ; conditions: unit assumed
Protocol: as §1, §2, §3

[2] = system: Mycobacterium smegmatis ATCC 114; test: In vitro agar dilution MIC, organism code UU; conditions: Table 1B, in µg/mL (unit assumed)
Protocol: as §1, §2, §3

[3] = system: Staphylococcus aureus ATCC 6538P; test: In vitro agar dilution MIC, organism code AA; conditions: Table 1B, unit assumed
Protocol: as §1, §2, §3

[4] = system: Haemophilis influenzae DILL AMP R; test: In vitro agar dilution MIC, organism code WW; conditions: unit assumed
Protocol: as §1, §2, §3

[5] = system: Micrococcus luteus ATCC 4698; test: In vitro agar dilution MIC, organism code PP; conditions: Table 1B, in µg/mL (unit assumed)
Protocol: as §1, §2, §3

[6] = system: Streptococcus pneumoniae ATCC 6303; test: In vitro agar dilution MIC, organism code XX; conditions: unit assumed
Protocol: as §1, §2, §3

[7] = system: Staphylococcus aureus NCTC10649M; test: In vitro agar dilution MIC, organism code EE; conditions: Table 1B, unit assumed
Protocol: as §1, §2, §3

Escherichia coli JUHL = test: In vitro agar dilution MIC, organism code QQ; conditions: Table 1B, in µg/mL (unit assumed)
Protocol: as §1, §2, §3

[8] = system: Streptococcus bovis A-5169; test: In vitro agar dilution MIC, organism code JJ; conditions: Table 1B, unit assumed
Protocol: as §1, §2, §3

[9] = system: Staphylococcus aureus A5177; test: In vitro agar dilution MIC, organism code BB; conditions: Table 1B, in µg/mL (unit assumed)
Protocol: as §1, §2, §3

[10] = system: Streptococcus pneumoniae 5649; test: In vitro agar dilution MIC, organism code ZZA; conditions: unit assumed
Protocol: as §1, §2, §3

[11] = system: Staphylococcus aureus 1775; test: In vitro agar dilution MIC, organism code GG; conditions: Table 1B, unit assumed
Protocol: as §1, §2, §3

[12] = system: Staphylococcus aureus CMX 642A; test: In vitro agar dilution MIC, organism code DD; conditions: Table 1B, unit assumed
Protocol: as §1, §2, §3

[13] = system: Staphylococcus aureus A-5278; test: In vitro agar dilution MIC, organism code CC; conditions: Table 1B, unit assumed
Protocol: as §1, §2, §3

[14] = system: Streptococcus pyogenes PIU 2548; test: In vitro agar dilution MIC, organism code NN; conditions: unit assumed
Protocol: as §1, §2, §3

[15] = system: Staphylococcus epidermidis 3519; test: In vitro agar dilution MIC, organism code HH; conditions: Table 1B, in µg/mL (unit assumed)
Protocol: as §1, §2, §3

[16] = system: Streptococcus pneumoniae GYR 1171; test: In vitro agar dilution MIC, organism code YY; conditions: Table 1B, unit assumed
Protocol: as §1, §2, §3

[17] = system: Streptococcus pyogenes 930; test: In vitro agar dilution MIC, organism code MM; conditions: unit assumed
Protocol: as §1, §2, §3

[18] = system: Enterococcus faecium ATCC 8043; test: In vitro agar dilution MIC, organism code II; conditions: Table 1B, unit assumed
Protocol: as §1, §2, §3

Escherichia coli SS = test: In vitro agar dilution MIC, organism code RR; conditions: Table 1B, in µg/mL (unit assumed)
Protocol: as §1, §2, §3

Candida albicans CCH 442 = test: In vitro agar dilution MIC, organism code TT; conditions: Table 1B, unit assumed
Protocol: as §1, §2, §3

[19] = system: Streptococcus pyogenes EES61; test: In vitro agar dilution MIC, organism code LL; conditions: unit assumed
Protocol: as §1, §2, §3

[20] = system: Staphylococcus aureus CMX 553; test: In vitro agar dilution MIC, organism code FF; conditions: Table 1B, unit assumed
Protocol: as §1, §2, §3

[21] = system: Streptococcus agalactiae CMX 508; test: In vitro agar dilution MIC, organism code KK; conditions: Table 1B, unit assumed
Protocol: as §1, §2, §3

[22] = system: Nocardia asteroides ATCC 9970; test: In vitro agar dilution MIC, organism code VV; conditions: Table 1B, in µg/mL (unit assumed)
Protocol: as §1
as §2, with “comparability. Erythromycin A was used for this purpose.” for “comparability.”
as §3

[23] = system: Micrococcus luteus ATCC 9341; test: In vitro agar dilution MIC, organism code OO; conditions: Table 1B, unit assumed
Protocol: as §1, §2, §3

SMILES | MIC (Escherichia coli DC-2) | MIC ([1]; Table 1B) | MIC [2] | MIC [3] | MIC ([4]; Table 1B) | MIC [5] | MIC ([6]; Table 1B) | MIC [7] | MIC (Escherichia coli JUHL) | MIC [8] | MIC [9] | MIC ([10]; Table 1B) | MIC [11] | MIC [12] | MIC [13] | MIC ([14]; Table 1B) | MIC [15] | MIC [16] | MIC ([17]; Table 1B) | MIC [18] | also measured
CC[C@H]1OC(=O)[C@@](C)(F)C(=O)[C@H](C)[C@@H](O[C@@H]2O[C@H](C)C[C@H](N(C)C)[C@H]2O)[C@](C)(OC/C=C/c2cnc3ccc(C(N)=O)cc3c2)C[C@@H](C)C(=O)[C@H](C)[C@H]2NC(=O)O[C@@]21C [Example 15] | 12.5 µg/mL (≈ 15.1 µM) | 0.5 µg/mL (≈ 0.605 µM) | 0.39 | 0.05 µg/mL (≈ 0.0605 µM) | 4 µg/mL (≈ 4.84 µM) | 0.05 | ≤ 0.004 µg/mL | 0.05 µg/mL (≈ 0.0605 µM) | 25 | 0.01 µg/mL (≈ 0.0121 µM) | 0.05 | 0.25 µg/mL (≈ 0.302 µM) | > 100 µg/mL | 0.05 µg/mL (≈ 0.0605 µM) | > 100 µg/mL | 0.1 µg/mL (≈ 0.121 µM) | 0.05 | ≤ 0.004 µg/mL | 0.1 µg/mL (≈ 0.121 µM) | 0.05 µg/mL (≈ 0.0605 µM) | MIC (Escherichia coli SS): 0.2; MIC (Candida albicans CCH 442): > 100 µg/mL; MIC ([19]; Table 1B): 0.01 µg/mL (≈ 0.0121 µM); MIC [20]: 0.05 µg/mL (≈ 0.0605 µM); MIC [21]: 0.01 µg/mL (≈ 0.0121 µM); MIC [22]: 0.05; MIC [23]: 0.01 µg/mL (≈ 0.0121 µM)
CC[C@H]1OC(=O)[C@@](C)(F)C(=O)[C@H](C)[C@@H](O[C@@H]2O[C@H](C)C[C@H](N(C)C)[C@H]2O)[C@](C)(OC/C=C/c2ccc3nccnc3c2)C[C@@H](C)C(=O)[C@H](C)[C@H]2NC(=O)O[C@@]21C [Example 12] | 12.5 µg/mL (≈ 15.9 µM) | 1 µg/mL (≈ 1.27 µM) | 0.2 | 0.05 µg/mL (≈ 0.0637 µM) | 2 µg/mL (≈ 2.55 µM) | 0.05 | ≤ 0.004 µg/mL | 0.05 µg/mL (≈ 0.0637 µM) | 12.5 | ≤ 0.005 µg/mL | 0.05 | 0.125 µg/mL (≈ 0.159 µM) | > 100 µg/mL | 0.05 µg/mL (≈ 0.0637 µM) | > 100 µg/mL | 0.05 µg/mL (≈ 0.0637 µM) | 0.05 | ≤ 0.004 µg/mL | 0.2 µg/mL (≈ 0.255 µM) | 0.01 µg/mL (≈ 0.0127 µM) | MIC ([1]; Table 1D): 1 µg/mL (≈ 1.27 µM); MIC ([4]; Table 1D): 2 µg/mL (≈ 2.55 µM); MIC ([6]; Table 1D): ≤ 0.004 µg/mL; MIC ([10]; Table 1D): 0.125 µg/mL (≈ 0.159 µM); MIC ([14]; Table 1D): 0.125 µg/mL (≈ 0.159 µM); MIC ([17]; Table 1D): 0.5 µg/mL (≈ 0.637 µM); MIC (Escherichia coli SS): 0.1; MIC (Candida albicans CCH 442): > 100 µg/mL; MIC ([19]; Table 1B): 0.01 µg/mL (≈ 0.0127 µM); MIC ([19]; Table 1D): ≤ 0.04 µg/mL; MIC [20]: 0.05 µg/mL (≈ 0.0637 µM); MIC [21]: 0.01 µg/mL (≈ 0.0127 µM); MIC [22]: ≤ 0.005; MIC [23]: ≤ 0.005 µg/mL
CC[C@H]1OC(=O)[C@@](C)(F)C(=O)[C@H](C)[C@@H](O[C@@H]2O[C@H](C)C[C@H](N(C)C)[C@H]2O)[C@](C)(OC/C=C/c2ccccc2)C[C@@H](C)C(=O)[C@H](C)[C@H]2NC(=O)O[C@@]21C [Example 7] | 25 µg/mL (≈ 34.1 µM) | 64 µg/mL (≈ 87.3 µM) | 0.05 | 0.05 µg/mL (≈ 0.0682 µM) | 2 µg/mL (≈ 2.73 µM) | 0.02 | ≤ 0.004 µg/mL | 0.05 µg/mL (≈ 0.0682 µM) | 50 | ≤ 0.005 µg/mL | 0.05 | 0.25 µg/mL (≈ 0.341 µM) | 100 µg/mL (≈ 136 µM) | 0.05 µg/mL (≈ 0.0682 µM) | 100 µg/mL (≈ 136 µM) | 0.05 µg/mL (≈ 0.0682 µM) | 0.05 | ≤ 0.004 µg/mL | 25 µg/mL (≈ 34.1 µM) | 0.02 µg/mL (≈ 0.0273 µM) | MIC ([1]; Table 1D): 64 µg/mL (≈ 87.3 µM); MIC ([4]; Table 1D): 2 µg/mL (≈ 2.73 µM); MIC ([6]; Table 1D): ≤ 0.04 µg/mL; MIC ([10]; Table 1D): 0.25 µg/mL (≈ 0.341 µM); MIC ([14]; Table 1D): 0.25 µg/mL (≈ 0.341 µM); MIC ([17]; Table 1D): 16 µg/mL (≈ 21.8 µM); MIC (Escherichia coli SS): 0.1; MIC (Candida albicans CCH 442): > 100 µg/mL; MIC ([19]; Table 1B): ≤ 0.005 µg/mL; MIC ([19]; Table 1D): ≤ 0.04 µg/mL; MIC [20]: 0.05 µg/mL (≈ 0.0682 µM); MIC [21]: ≤ 0.005 µg/mL; MIC [22]: ≤ 0.005; MIC [23]: ≤ 0.005 µg/mL
